Earlier results in patent publication US20140088058A1 (PARTHENOGEN SAGL, priority 2011, published 2014).
Blank lines part the entries; values can stand above or below the compound they belong to.

Legend:
[1] = test system: gonadotrophin surge, oocytes collected; conditions: 40 mg oral route since early days of FSH administration
[2] = test system: FSH and LH plasma concentration

SMILES: NC(=O)c1ccc[n+]([C@@H]2O[C@H](COP(=O)([O-])OP(=O)(O)OC[C@H]3O[C@@H](n4cnc5c(N)ncnc54)[C@H](O)[C@@H]3O)[C@@H](O)[C@H]2O)c1 [NAD+]
- effect following rat brain ischemia (infarct formation; given by injection): ineffective
- reduction of infarct formation (infarct formation; nasal route, rat brain ischemia): 90%

- solubility in dimethyl sulfoxide (DMSO) (DMSO): more than 20 mg/ml
- solubility in ethanol (ethanol): more than 20 mg/ml
SMILES: CC#C[C@]1(O)CC[C@H]2[C@@H]3CCC4=CC(=O)CCC4=C3[C@@H](c3ccc(N(C)C)cc3)C[C@@]21C [mifepristone, 17β-hydroxyl-11β-(4-dimethyl-aminophenyl-1)-17α-(prop-1-ynyl)-estra-4,9-diene-3-one]
- circulating levels of FSH and LH (LH surge; 1 mg per os for 5 days, from dominant follicle 14-16 mm): remained flat
- LH surge timing versus placebo (LH surge; 1 mg per os for 5 days, placebo surge within 1 to 3 days): delayed in all treated women
- gonadotrophin surge [1]: did not have a gonadotrophin surge
- effect on FSH and LH plasma concentration ([2]; 10 or 100 mg per os): reduction

SMILES: CC(=O)[C@H]1CC[C@H]2[C@@H]3CCC4=CC(=O)CC[C@]4(C)[C@H]3CC[C@]12C [progesterone]
- women with gonadotrophin surge within one day from first progesterone injection (LH surge; after mifepristone 1 mg per os, progesterone i.m. 2.5 mg bid day 1, 5 mg bid day 2): 5 out of 6
- effect on plasma FSH and LH concentration ([2]; 10 mg i.m. in mid- or late-follicular phase): acute increase
